Results taken from US20100311729A1, “Substituted imidazopyridazines and pyrrolopyrimidines as lipid kinase inhibitors” (priority 2007, published 2010).

What was measured:
Assay type in all cases: biochemical
PI3K gamma = target: T1, PI3K gamma (Homo sapiens, UniProt P48736); assay: PI3 kinase assay (Kinase-Glo luminescence), PI3K gamma; conditions: Enzymatic Data; read-out: PI3K gamma IC50 [umol]
T1 construct: PI3Kγ BV-950 p110g(D144aa)-C-Term His Tag; His tag (C); made in house; host or cells: construct from the Roger Williams lab (MRC LMB) in pVL1393; baculovirus; Tn5 (Trichoplusia ni) or TiniPro insect cells
T1 sequence (P48736 144-1102 limits assumed): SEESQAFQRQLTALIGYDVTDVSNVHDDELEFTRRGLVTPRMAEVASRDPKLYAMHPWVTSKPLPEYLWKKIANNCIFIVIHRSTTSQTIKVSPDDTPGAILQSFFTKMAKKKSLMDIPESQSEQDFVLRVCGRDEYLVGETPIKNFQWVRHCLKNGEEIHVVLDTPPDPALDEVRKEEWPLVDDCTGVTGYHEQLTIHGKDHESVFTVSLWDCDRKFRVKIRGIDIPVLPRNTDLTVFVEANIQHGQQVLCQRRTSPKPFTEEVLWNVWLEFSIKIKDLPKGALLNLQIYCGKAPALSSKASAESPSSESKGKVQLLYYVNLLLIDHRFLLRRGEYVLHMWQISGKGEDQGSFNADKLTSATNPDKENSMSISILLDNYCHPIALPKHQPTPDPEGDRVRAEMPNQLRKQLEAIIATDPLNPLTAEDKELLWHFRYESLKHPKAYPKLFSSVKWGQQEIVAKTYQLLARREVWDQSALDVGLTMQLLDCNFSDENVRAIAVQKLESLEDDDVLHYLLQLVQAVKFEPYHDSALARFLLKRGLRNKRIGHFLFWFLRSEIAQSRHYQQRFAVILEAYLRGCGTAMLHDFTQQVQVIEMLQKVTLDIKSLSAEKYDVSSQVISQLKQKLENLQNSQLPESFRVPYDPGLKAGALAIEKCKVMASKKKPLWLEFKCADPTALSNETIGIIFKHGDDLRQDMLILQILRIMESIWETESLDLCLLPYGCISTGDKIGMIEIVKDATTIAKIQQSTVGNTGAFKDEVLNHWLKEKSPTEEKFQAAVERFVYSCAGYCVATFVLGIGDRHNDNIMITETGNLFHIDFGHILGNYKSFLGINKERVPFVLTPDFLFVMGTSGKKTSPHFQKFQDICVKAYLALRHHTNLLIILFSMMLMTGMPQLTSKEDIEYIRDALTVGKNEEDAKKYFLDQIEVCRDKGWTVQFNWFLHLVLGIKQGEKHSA
Summary of the method: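 Percent inhibition at eight concentrations (typically 10 to 0.003 […]) fitted to a four-parameter logistic model to give IC50. Reaction initiated with ATP; final ATP 1 μM and phosphatidylinositol 10 μg/mL; ATP consumption read by Kinase-Glo luminescence.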

PI3K delta = target: T2, PI3K delta (Homo sapiens, UniProt O00329); assay: PI3 kinase assay (Kinase-Glo luminescence), PI3K delta; conditions: Enzymatic Data; read-out: PI3K delta IC50 [umol]
T2 construct: for the full-length p110-d subunit are generated and fused by overlapping PCR; His tag (C); made in house; host or cells: baculovirus; Tn5 (Trichoplusia ni) or TiniPro insect cells
T2 sequence (O00329 with tags, fused parts or gaps limits assumed): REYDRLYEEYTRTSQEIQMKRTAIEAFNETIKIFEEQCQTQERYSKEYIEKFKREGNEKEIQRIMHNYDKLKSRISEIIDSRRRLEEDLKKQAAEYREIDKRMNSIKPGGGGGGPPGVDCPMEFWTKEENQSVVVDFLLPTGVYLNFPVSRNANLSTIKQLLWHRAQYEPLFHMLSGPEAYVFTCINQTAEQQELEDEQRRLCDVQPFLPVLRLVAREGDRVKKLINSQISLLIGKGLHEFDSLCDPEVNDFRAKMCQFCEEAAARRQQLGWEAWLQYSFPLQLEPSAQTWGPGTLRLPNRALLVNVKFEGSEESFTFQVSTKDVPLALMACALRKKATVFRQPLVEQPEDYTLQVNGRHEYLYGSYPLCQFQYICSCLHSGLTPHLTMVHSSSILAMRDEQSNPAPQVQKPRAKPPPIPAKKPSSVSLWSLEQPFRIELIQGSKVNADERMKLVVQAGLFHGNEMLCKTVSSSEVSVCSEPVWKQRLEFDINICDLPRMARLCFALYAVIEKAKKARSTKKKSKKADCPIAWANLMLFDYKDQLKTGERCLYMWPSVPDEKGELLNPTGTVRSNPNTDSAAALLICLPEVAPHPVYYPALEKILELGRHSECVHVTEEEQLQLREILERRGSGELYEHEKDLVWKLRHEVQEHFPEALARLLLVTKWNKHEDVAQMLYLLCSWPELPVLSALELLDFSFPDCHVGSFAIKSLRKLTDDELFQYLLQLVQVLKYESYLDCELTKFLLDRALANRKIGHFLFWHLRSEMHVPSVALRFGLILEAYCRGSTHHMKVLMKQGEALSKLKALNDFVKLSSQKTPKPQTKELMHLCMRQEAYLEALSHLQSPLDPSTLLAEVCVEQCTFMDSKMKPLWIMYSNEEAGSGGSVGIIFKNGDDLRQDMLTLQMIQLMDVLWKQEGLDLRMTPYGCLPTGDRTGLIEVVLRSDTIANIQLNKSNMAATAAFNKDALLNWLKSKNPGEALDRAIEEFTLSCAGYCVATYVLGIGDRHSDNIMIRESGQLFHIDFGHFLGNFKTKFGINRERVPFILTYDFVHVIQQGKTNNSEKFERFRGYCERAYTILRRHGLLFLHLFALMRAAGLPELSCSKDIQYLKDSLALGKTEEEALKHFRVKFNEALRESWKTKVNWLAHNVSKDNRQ
Summary of the method: (§1)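 Recombinant PI3K constructs (alfa 10 nM, delta 10 nM, gamma 150 nM) with 1 μM ATP and 10 μg/mL phosphatidylinositol in Tris pH 7.5, MgCl2, NaCl, CHAPS, DTT; 60 min (alfa, delta) or 120 min (gamma) at room temperature. ATP depletion read by Kinase-Glo luminescence; IC50 from 4-parameter logistic fit over 8 concentrations.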

PI3K beta = target: T3, PI3K beta (Homo sapiens, UniProt P42338); assay: PI3 kinase assay (Kinase-Glo luminescence), PI3K beta; conditions: Enzymatic Data; read-out: PI3K beta IC50 [umol]
T3 construct: for the full-length p110-b subunit are generated and fused by overlapping PCR; His tag (C); made in house; host or cells: baculovirus; Tn5 (Trichoplusia ni) or TiniPro insect cells
T3 sequence (P42338 with tags, fused parts or gaps limits assumed): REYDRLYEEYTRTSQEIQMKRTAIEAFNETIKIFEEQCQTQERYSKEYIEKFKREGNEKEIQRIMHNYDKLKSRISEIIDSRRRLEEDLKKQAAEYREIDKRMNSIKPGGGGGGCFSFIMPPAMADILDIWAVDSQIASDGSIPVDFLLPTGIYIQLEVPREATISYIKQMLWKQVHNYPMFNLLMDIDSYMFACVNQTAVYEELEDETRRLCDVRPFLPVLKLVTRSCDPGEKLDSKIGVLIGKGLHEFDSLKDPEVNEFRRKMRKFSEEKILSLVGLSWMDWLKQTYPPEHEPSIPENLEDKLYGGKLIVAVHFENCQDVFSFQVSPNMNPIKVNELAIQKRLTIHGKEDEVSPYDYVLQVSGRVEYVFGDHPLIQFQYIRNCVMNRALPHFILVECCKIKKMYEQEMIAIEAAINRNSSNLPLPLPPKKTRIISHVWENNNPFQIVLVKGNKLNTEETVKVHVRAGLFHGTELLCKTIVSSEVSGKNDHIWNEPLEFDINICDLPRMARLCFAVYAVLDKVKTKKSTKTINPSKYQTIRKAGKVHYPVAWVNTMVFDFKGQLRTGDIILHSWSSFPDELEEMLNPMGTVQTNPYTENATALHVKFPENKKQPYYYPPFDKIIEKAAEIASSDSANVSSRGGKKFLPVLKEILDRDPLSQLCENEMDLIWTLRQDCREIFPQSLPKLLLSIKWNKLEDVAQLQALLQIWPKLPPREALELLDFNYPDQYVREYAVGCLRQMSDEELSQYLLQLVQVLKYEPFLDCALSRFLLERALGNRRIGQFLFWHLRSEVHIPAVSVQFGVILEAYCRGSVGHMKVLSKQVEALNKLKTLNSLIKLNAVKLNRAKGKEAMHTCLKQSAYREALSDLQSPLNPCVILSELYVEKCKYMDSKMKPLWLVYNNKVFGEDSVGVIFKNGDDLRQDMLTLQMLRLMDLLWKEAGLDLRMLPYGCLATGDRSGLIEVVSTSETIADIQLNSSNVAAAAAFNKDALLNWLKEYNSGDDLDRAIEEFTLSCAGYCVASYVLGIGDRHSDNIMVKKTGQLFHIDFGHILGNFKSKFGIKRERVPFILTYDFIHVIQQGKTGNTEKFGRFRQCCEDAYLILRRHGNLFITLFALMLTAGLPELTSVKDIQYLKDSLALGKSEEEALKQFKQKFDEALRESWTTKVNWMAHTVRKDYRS
Summary of the method: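 PI3Kβ (25 nM, BV-949) with 10 μg/mL phosphatidylinositol in Tris pH 7.5/MgCl2/NaCl/CHAPS/DTT buffer; reaction started with 1 μM ATP, 60 min at room temperature. ATP depletion read by Kinase-Glo luminescence; 8-point dilutions, IC50 by four-parameter logistic fit.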

PI3K alfa = target: T4, PI3K alfa (Homo sapiens, UniProt P42336); assay: PI3 kinase assay (Kinase-Glo luminescence), PI3K alfa; conditions: Enzymatic Data; read-out: PI3K alfa IC50 [umol]
T4 construct: for the p110-a subunit (with a deletion of the first 20 amino acids); His tag (C); made in house; host or cells: baculovirus; Tn5 (Trichoplusia ni) or TiniPro insect cells
T4 sequence (P42336 with tags, fused parts or gaps limits assumed): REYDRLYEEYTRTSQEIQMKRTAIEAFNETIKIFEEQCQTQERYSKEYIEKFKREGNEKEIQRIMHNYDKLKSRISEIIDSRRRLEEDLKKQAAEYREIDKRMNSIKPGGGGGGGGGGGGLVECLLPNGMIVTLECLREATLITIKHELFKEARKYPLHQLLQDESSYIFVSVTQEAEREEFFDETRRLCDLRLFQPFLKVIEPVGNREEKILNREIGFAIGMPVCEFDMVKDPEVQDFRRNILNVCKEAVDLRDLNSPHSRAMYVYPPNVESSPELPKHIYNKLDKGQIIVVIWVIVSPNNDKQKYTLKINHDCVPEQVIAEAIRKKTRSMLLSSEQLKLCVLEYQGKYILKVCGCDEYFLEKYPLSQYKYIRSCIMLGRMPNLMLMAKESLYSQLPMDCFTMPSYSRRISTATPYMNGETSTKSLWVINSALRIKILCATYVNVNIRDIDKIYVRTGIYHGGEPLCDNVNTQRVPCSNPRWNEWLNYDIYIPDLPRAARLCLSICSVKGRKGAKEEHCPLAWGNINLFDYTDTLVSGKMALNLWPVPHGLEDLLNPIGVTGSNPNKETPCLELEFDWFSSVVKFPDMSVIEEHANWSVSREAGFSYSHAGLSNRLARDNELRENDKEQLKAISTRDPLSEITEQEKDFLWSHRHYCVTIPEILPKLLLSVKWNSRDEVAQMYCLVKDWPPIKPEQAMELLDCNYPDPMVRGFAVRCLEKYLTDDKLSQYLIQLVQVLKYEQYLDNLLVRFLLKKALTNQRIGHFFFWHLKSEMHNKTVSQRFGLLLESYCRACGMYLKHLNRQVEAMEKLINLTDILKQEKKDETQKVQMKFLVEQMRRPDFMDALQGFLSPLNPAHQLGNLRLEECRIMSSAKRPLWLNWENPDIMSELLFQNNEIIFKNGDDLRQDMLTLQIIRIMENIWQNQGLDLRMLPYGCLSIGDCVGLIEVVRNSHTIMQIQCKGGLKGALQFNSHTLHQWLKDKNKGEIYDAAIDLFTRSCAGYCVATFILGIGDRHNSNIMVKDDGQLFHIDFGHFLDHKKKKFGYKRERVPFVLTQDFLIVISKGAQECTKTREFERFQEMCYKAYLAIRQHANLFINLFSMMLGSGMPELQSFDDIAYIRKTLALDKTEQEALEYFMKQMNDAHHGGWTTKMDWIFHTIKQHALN
Summary of the method: as §1

SMILES	IC50 (PI3K gamma)	IC50 (PI3K delta)	IC50 (PI3K beta)	IC50 (PI3K alfa)
Nc1ncc(-c2ccc3ncc(-c4ccc(OCCCN5CCOCC5)cc4)n3n2)cc1C(F)(F)F [Example 171, 5-{3-[4-(3-Morpholin-4-yl-propoxy)-phenyl]-imidazo [1,2-b]pyridazin-6-yl}-3-trifluoro-methyl-pyridin-2-ylamine]	480 nM	61 nM	185 nM	49 nM
COc1cc(-c2cnc3ccc(-c4cnc(N)c(C(F)(F)F)c4)nn23)c(F)cc1C(=O)NCCn1ccnc1 [Example 161, 4-[6-(6-Amino-5-trifluoro-methyl-pyridin-3-yl)-imidazo (1,2-b]pyridazin-3-yl]-5-fluoro-N-(2-imidazol-1-yl-ethyl)-2-methoxy-benzamide]	2400 nM	9 nM	28 nM	3 nM
COc1cc(-c2cnc3ccc(-c4cnc(N)c(C(F)(F)F)c4)nn23)c(F)cc1C(=O)NCCN1CCOCC1 [Example 158, 4-[6-(6-Amino-5-trifluoro-methyl-pyridin-3-yl)-imidazo [1,2-b]pyridazin-3-yl]-5-fluoro-2-methoxy-N-(2-morpholin-4-yl-ethyl)-benzamide]	> 9100 nM	113 nM	388 nM	38 nM
COc1cc(-c2ccc3ncc(-c4cnc(N)c(C(F)(F)F)c4)n3n2)ccc1OCCCNC(=O)C1CC1 [Example 65]	483 nM	345 nM	505 nM	26 nM
COc1cc(-c2ccc3ncc(-c4cnc(N)c(C(F)(F)F)c4)n3n2)ccc1OCCCNC(=O)C(C)C [Example 51]	6050 nM	886 nM	1390 nM	92 nM
COc1ccc(-c2ccc3ncc(-c4cnc(N)c(C(F)(F)F)c4)n3n2)cc1F [Example 48, 5-[6-(3-Fluoro-4-methoxy-phenyl)-imidazo [1,2-b]pyridazin-3-yl]-3-trifluoro-methyl-pyridin-2-ylamine]	> 9100 nM	2440 nM	6790 nM	1120 nM
COc1cc(-c2cnc3ccc(-c4cnc(N)c(C(F)(F)F)c4)nn23)ccc1OCCCNC(=O)OC(C)(C)C [Example 36, (3-{4-[6-(6-Amino-5-trifluoro-methyl-pyridin-3-yl)-imidazo [1,2-b]pyridazin-3-yl]-2-methoxy-phenoxy}-propyl)-carbamic acid tert-butyl ester]	4830 nM	328 nM	2160 nM	255 nM
Nc1ncc(-c2cnc3ccc(-c4ccc(OCCCN5CCCC5=O)c(F)c4)nn23)cc1C(F)(F)F [Example 90, 1-(3-{4-[3-(6-Amino-5-trifluoro-methyl-pyridin-3-yl)-imidazo [1,2-b]pyridazin-6-yl]-2-fluoro-phenoxy}-propyl)-pyrrolidin-2-one]	4690 nM	1110 nM	> 9100 nM	1140 nM
CC(C)(C)OC(=O)NCCCOc1ccc(-c2cnc3ccc(-c4cnc(N)c(C(F)(F)F)c4)nn23)cc1OC(F)(F)F [Example 40, (3-{4-[6-(6-Amino-5-trifluoro-methyl-pyridin-3-yl)-imidazo [1,2-b]pyridazin-3-yl]-2-trifluoro-methoxy-phenoxy}-propyl)-carbamic acid tert-butylester]	> 9100 nM	> 9100 nM	> 9100 nM	6900 nM
CC(C)(C)OC(=O)NCCCOc1ccc(-c2ccc3ncc(-c4cnc(N)c(C(F)(F)F)c4)n3n2)cn1 [Example 175, (3-{5-[3-(G-Amino-5-trifluoro-methyl-pyridin-3-yl)-imidazo [1,2-b]pyridazin-6-yl]-pyridin-2-yloxy}-propyl)-carbamic acid tert-butyl ester]	> 9100 nM	421 nM	7100 nM	119 nM
Nc1ncc(-c2ccc3ncc(-c4ccc(S(=O)(=O)NCCN5CCOCC5)cc4)n3n2)cc1C(F)(F)F [Example 124, 4-[6-(6-Amino-5-trifluoro-methyl-pyridin-3-yl)-imidazo [1,2-b]pyridazin-3-yl]-N-(2-morpholin-4-yl-ethyl)-benzene-sulfonamide]	529 nM	29 nM	157 nM	18 nM
Nc1ncc(-c2ccc3ncc(-c4ccc(OCCCc5ccncc5)cc4)n3n2)cc1C(F)(F)F [Example 174, 5-{3-[4-(3-Pyridin-4-yl-propoxy)-phenyl]-imidazo [1,2-b]pyridazin-6-yl}-3-trifluoro-methyl-pyridin-2-ylamine]	2070 nM	224 nM	2060 nM	106 nM
CC(C)S(=O)(=O)c1ccc(-c2cnc3ccc(-c4cnc(N)c(C(F)(F)F)c4)nn23)cc1 [Example 72, 5-{3-[4-(Propane-2-sulfonyl)-phenyl]-imidazo[1,2-b]pyridazin-6-yl}-3-trifluoro-methyl-pyridin-2-lamine]	2020 nM	56 nM	233 nM	28 nM
Nc1ncc(-c2cnc3ccc(-c4ccc(C(=O)NCCN5CCOCC5)cc4)nn23)cc1C(F)(F)F [Example 122, 4-[3-(6-Amino-5-trifluoro-methyl-pyridin-3-yl)-imidazo [1,2-b]pyridazin-6-yl]-N-(2-morpholin-4-yl-ethyl)-benzamide]	1400 nM	199 nM	986 nM	43 nM
NCCCOc1ccc(-c2ccc3ncc(-c4cnc(N)c(C(F)(F)F)c4)n3n2)cn1 [Example 176, 5-{6-[6-(3-Amino-propoxy)-pyridin-3-yl]-imidazo-[1,2b]pyridazin-3-yl}-3-trifluoro-methyl-pyridin-2-ylamine]	2440 nM	41 nM	81 nM	82 nM
Nc1ncc(-c2cnc3ccc(-c4ccc(OC5CCNCC5)cc4)nn23)cc1C(F)(F)F [Example 165, 5-{6-[4-(Piperidin-4-yloxy)-phenyl]-imidazo [1,2-b]pyridazin-3-yl}-3-trifluoro-methyl-pyridin-2-ylamine]	371 nM	207 nM	355 nM	131 nM
COc1ccc(-c2ccc3ncc(-c4cnc(N)c(OC)n4)n3n2)cc1OC [Example 68, 5-[6-(3,4-Dimethoxy-phenyl)-imidazo [1,2-b]pyridazin-3-yl]-3-methoxy-pyrazin-2-ylamine]	1300 nM	26 nM	51 nM	9 nM
CC(=O)NCCn1cc(-c2ccc3ncc(-c4cnc(N)c(C(F)(F)F)c4)n3n2)ccc1=O [Example 76, N-(2-{5-[3-(6-Amino-5-trifluoro-methyl-pyridin-3-yl)-imidazo [1,2-b]pyridazin-6-yl]-2-oxo-2H-pyridin-1-yl}-ethyl)-acetamide]	3220 nM	151 nM	670 nM	158 nM
NCC1(COc2ccc(-c3ccc4ncc(-c5cnc(N)c(C(F)(F)F)c5)n4n3)cc2)COC1 [Example 169, 5-{6-[4-(3-Aminomethyl-oxetan-3-ylmethoxy)-phenyl]-imidazo[1,2-b]pyridazin-3-yl}-3-trifluoromethyl-pyridin-2-ylamine]	324 nM	53 nM	82 nM	45 nM
Nc1ncc(-c2ccc3ncc(-c4ccc(S(=O)(=O)N5CCOCC5)cc4)n3n2)cc1C(F)(F)F [Example 102, 5-{3-[4-(Morpholine-4-sulfonyl)-phenyl]-imidazo[1,2-b]pyridazin-6-yl}-3-trifluoromethyl-pyridin-2-ylamine]	1060 nM	17 nM	1270 nM	43 nM
Nc1ccc(-c2cnc3ccc(-c4cnc(N)c(C(F)(F)F)c4)nn23)cn1 [Example 39, 5-{3-(6-Amino-pyridin-3-yl)-imidazo [1,2-b]pyridazin-6-yl]-3-trifluoro-methyl-pyridin-2-ylamine]	1290 nM	40 nM	19 nM	54 nM
COc1cc(-c2ccc3ncc(-c4cnc(N)c(C(F)(F)F)c4)n3n2)ccc1OCCNC(C)=O [Example 62, N-(2-{4-[3-(6-Amino-5-trifluoro-methyl-pyridin-3-yl)-imidazo[1,2-b]pyridazin-6-yl]-2-methoxy-phenoxy}-ethyl)-acetamide]	1360 nM	138 nM	156 nM	28 nM
Nc1ncc(-c2ccc3ncc(-c4ccc(S(=O)(=O)NCCCN5CCOCC5)cc4)n3n2)cc1C(F)(F)F [Example 134, 4-[6-(6-Amino-5-trifluoro-methyl-pyridin-3-yl)-imidazo [1,2-b]pyridazin-3-yl]-N-(3-morpholin-4-yl-propyl)-benzene-sulfonamide]	> 9100 nM	79 nM	443 nM	71 nM
